Earlier results on 1 molecule are cited in US12691080B2, “Fenretinide formulations, systems incorporating same, and methods for their use” (ARx, LLC, priority 2024, dated 2026).

The conditions of data set [1]: pH 6.5.

≈ marks a conversion by molar mass, not a printed value.

Turning to `CC1=C(/C=C/C(C)=C/C=C/C(C)=C/C(=O)Nc2ccc(O)cc2)C(C)(C)CCC1` [fenretinide, N-(4-hydroxyphenyl)retinamide], in data set [1], the solubility in water was 0.013 µM (≈ 5.09 ng/mL). Moreover, in the data set with oral epithelium (epithelium with higher fenretinide levels (>5 μM)), the “epithelial proliferation (Ki-67 indices)” value was “significantly reduced”. In addition, the “transglutaminase 1 levels” value in the data set with oral epithelium (fenretinide levels lower than 5 μM) is on record as “increased levels”. Moreover, the “Phase II enzyme UGT1A1” value in the data set on oral epithelium (lower fenretinide levels) is given as “increase”. Further, the systemically detectable drug in the data set on oral epithelium (oral mucosal patch delivery) was “absence of any systemically detectable drug”.
